Assay results as given in ChEMBL document CHEMBL1201862, “PubChem BioAssay data set” (2004).
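Results reflect a 48-hour exposure of cells in 96-well plates to compound at five concentrations. Here, GI50 denotes the concentration required for 50% inhibition of growth.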 Activity calls are given as the source filed them. Cut-off read from the data, not from the text of the source: active = GI50 up to about 1.1 µM and inactive = higher.

What was measured:
Test in all cases: growth of human tumour cells (NCI), 48 h
NCI-H460 = test system: NCI-H460
NCI-H226 = test system: NCI-H226
HL-60 = test system: HL-60
UO-31 = test system: UO-31
SN12C = test system: SN12C
HOP-62 = test system: HOP-62
SW-620 = test system: SW-620
Malme-3M = test system: Malme-3M
U-251 = test system: U-251
UACC-62 = test system: UACC-62
MOLT-4 = test system: MOLT-4
KM12 = test system: KM12
SF-295 = test system: SF-295
NCI-H23 = test system: NCI-H23
LOX IMVI = test system: LOX IMVI
SK-MEL-2 = test system: SK-MEL-2
SK-MEL-28 = test system: SK-MEL-28
OVCAR-4 = test system: OVCAR-4
786-0 = test system: 786-0

Row | SMILES | GI50 (NCI-H460) | GI50 (NCI-H226) | GI50 (HL-60) | GI50 (UO-31) | GI50 (SN12C) | GI50 (HOP-62) | GI50 (SW-620) | GI50 (Malme-3M) | GI50 (U-251) | GI50 (UACC-62) | GI50 (MOLT-4) | GI50 (KM12) | GI50 (SF-295) | GI50 (NCI-H23) | GI50 (LOX IMVI) | GI50 (SK-MEL-2) | GI50 (SK-MEL-28) | GI50 (OVCAR-4) | GI50 (786-0)
1 | COc1cc(/C=C/C2=C(C#N)C(=O)OC2(C)C)ccc1O | 38.9 µM (inactive) | 37.3 µM (inactive) | 22.4 µM (inactive) | 44.9 µM (inactive) | 55 µM (inactive) | 43.6 µM (inactive) | 35.3 µM (inactive) | > 100 µM (inactive) | 17.4 µM (inactive) | > 100 µM (inactive) | > 100 µM (inactive) | 30.9 µM (inactive) | 46.1 µM (inactive) | > 100 µM (inactive) | 20.7 µM (inactive) | > 100 µM (inactive) | > 100 µM (inactive) | – | –
2 | CSc1nc2c(ncn2C2OCC(O)C(O)C2O)c(=O)n1C (configuration not stated) | > 100 µM (inactive) | > 100 µM (inactive) | > 100 µM (inactive) | > 100 µM (inactive) | > 100 µM (inactive) | > 100 µM (inactive) | > 100 µM (inactive) | > 100 µM (inactive) | > 100 µM (inactive) | > 100 µM (inactive) | > 100 µM (inactive) | > 100 µM (inactive) | > 100 µM (inactive) | > 100 µM (inactive) | > 100 µM (inactive) | > 100 µM (inactive) | > 100 µM (inactive) | > 100 µM (inactive) | –
3 | NC(=O)C1(c2ccccc2)Nc2ccccc2S1 (configuration not stated) | > 100 µM (inactive) | > 100 µM (inactive) | > 100 µM (inactive) | > 100 µM (inactive) | > 100 µM (inactive) | > 100 µM (inactive) | > 100 µM (inactive) | > 100 µM (inactive) | > 100 µM (inactive) | > 100 µM (inactive) | > 100 µM (inactive) | > 100 µM (inactive) | – | > 100 µM (inactive) | > 100 µM (inactive) | > 100 µM (inactive) | > 100 µM (inactive) | > 10 µM (inactive) | –
4 | COc1cc(C2c3cc4c(cc3[C@@H](Nc3ccc(N5CCOCC5)cc3)C3COC(=O)[C@H]23)OCO4)cc(OC)c1O (some centres not stated) | < 0.01 µM (active) | 0.773 µM (active) | 0.0319 µM (active) | 1.85 µM (inactive) | 0.388 µM (active) | 0.274 µM (active) | 1.5 µM (inactive) | 1.89 µM (inactive) | 0.214 µM (active) | 0.525 µM (active) | 0.0207 µM (active) | – | 0.296 µM (active) | – | 1.01 µM (active) | 2.46 µM (inactive) | 3.82 µM (inactive) | 9.84 µM (inactive) | –
5 | COc1cc2c(cc1OC)-c1c(cnn1C1OC(COC(C)=O)C(OC(C)=O)C(OC(C)=O)C1OC(C)=O)CC2 (configuration not stated) | > 100 µM (inactive) | > 100 µM (inactive) | 11 µM (inactive) | 55.7 µM (inactive) | – | > 100 µM (inactive) | > 60.7 µM (inactive) | – | 34.1 µM (inactive) | > 100 µM (inactive) | > 81.5 µM (inactive) | > 100 µM (inactive) | > 100 µM (inactive) | > 100 µM (inactive) | > 100 µM (inactive) | > 100 µM (inactive) | > 100 µM (inactive) | > 100 µM (inactive) | > 100 µM (inactive)
6 | Nc1nn(CC(O)CO)c(=O)s1 (configuration not stated) | > 100 µM (inactive) | > 100 µM (inactive) | > 100 µM (inactive) | > 100 µM (inactive) | > 100 µM (inactive) | > 100 µM (inactive) | > 100 µM (inactive) | > 100 µM (inactive) | > 100 µM (inactive) | > 100 µM (inactive) | > 100 µM (inactive) | – | > 100 µM (inactive) | > 100 µM (inactive) | > 100 µM (inactive) | > 100 µM (inactive) | 7.69 µM (inactive) | > 100 µM (inactive) | –
